Reference: US11273152B2, “TRPV2 antagonists” (Instituto de Medicina Molecular João Lobo Antunes, priority 2017, dated 2022)
“Also recorded” adds a separate entry of the source. Where two headings read alike, the source gives them in different places.

Tests used:
U251 cells = assay: Toxicity assay (CellTiter-Blue), U251; type: cell-based; settings: 24, 48 and 72 hours; various concentrations
Description: 5,000 cells/well were seeded in 96 well plates with DMEM containing 2% FBS. The next day piperlongumine was added at various concentrations. […] At 24, 48 and 72 hours the media was removed and replaced with CellTiter-Blue (Promega, 1:20 in media). The plate was incubated for 90 minutes before measuring fluorescence intensity.

TRPC5 = TRPC5 (Homo sapiens, UniProt Q9UL62); assay: Fluorescence cell-based assay, TRPC5; settings: membrane potential dye, duplicate
Description: (§1) The assays were performed at SB Discovery (Glasgow, UK) on a fee-for-service basis. Human TRP cells were trypsinised, counted and seeded in black, clear-bottomed 96 well plates at a density of 50,000 cells per well in 100 μL volume and incubated overnight. Next day, the cells were loaded with calcium 5 dye or membrane potential dye. TRPV1-5, TRPA1, TRPM2, TRPM3, and TRPM8 were tested using the calcium 5 dye. TRPC1, TRPC3-7, and TRPM4-5 were tested using the membrane potential dye. Both dye solutions were made up in HEPES buffered Hank's balanced salt solution (HBSS). Dye solution (90 μL) was added to the wells and incubated at 37° C. for 1 hour. Test compounds and standard inhibitors (10 μL) were then added to the wells and incubated at room temperature for 10 minutes. The plates were then placed in the flexstation and fluorescence monitored every 1.52 seconds. After 20 seconds agonist was added and the fluorescence monitored for 2 minutes at 485 nm/525 nm and 530 nm/565 nm, Ex/Em, for the calcium 5 dye and the membrane potential dye respectively. Controls-TRPV1: capsazepine; TRPV2: tranilast; TRPV3: ruthenium red; TRPV4: ruthenium red; TRPV5: Gd^3+; TRPA1, ruthenium red; TRPC1: Gd^3+; TRPC3: Pyr3; TRPC4: ML 204; TRPC5: ML 204; TRPC6: ML 204; TRPC7: SKF 96365; TRPM2: 2-APB; TRPM3: Mef acid; TRPM4: clotrimazole; TRPM5: TPPO; TRPM8: 2-APB. […]

TRPM5 = TRPM5 (Homo sapiens, UniProt Q9NZQ8); assay: Fluorescence cell-based assay, TRPM5; settings: membrane potential dye, duplicate
Description: as §1

TRPV2 = molecular target: T1, TRPV2 (Homo sapiens, UniProt Q9Y5S1); assay: Manual patch-clamp assay, hTRPV2 stable HEK-293 cells; type: cell-based; settings: n=2; for IC50: read-out: IC50 against TRPV2, patch-clamp assay
T1 sequence (Q9Y5S1 1-764): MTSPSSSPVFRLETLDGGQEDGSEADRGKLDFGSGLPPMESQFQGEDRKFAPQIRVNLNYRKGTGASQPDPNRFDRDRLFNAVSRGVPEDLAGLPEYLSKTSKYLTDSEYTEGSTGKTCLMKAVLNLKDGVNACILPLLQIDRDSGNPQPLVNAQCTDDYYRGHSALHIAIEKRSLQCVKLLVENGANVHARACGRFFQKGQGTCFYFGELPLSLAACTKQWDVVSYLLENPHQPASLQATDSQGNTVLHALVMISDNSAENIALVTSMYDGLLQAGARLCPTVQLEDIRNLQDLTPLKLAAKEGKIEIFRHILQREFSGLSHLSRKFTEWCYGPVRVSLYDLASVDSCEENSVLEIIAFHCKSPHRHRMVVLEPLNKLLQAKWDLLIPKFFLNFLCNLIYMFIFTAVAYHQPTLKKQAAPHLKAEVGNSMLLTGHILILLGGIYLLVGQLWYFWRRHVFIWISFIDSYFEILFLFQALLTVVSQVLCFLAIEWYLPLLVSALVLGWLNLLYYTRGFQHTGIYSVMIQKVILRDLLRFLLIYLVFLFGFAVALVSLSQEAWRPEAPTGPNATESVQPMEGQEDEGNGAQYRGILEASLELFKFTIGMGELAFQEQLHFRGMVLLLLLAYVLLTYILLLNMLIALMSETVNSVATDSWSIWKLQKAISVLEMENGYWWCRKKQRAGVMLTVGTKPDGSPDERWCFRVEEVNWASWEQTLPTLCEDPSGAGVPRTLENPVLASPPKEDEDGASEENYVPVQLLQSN
Description: The assays were performed at SB Discovery (Glasgow, UK) on a fee-for-service basis. Concentration-response curves and washout assays were performed using a manual patch clamp method. HEK-293 cells were grown and prepared, according to the adapted procedure for hTRPV2 stable cell lines at SB Discovery. Cells were serum starved for approximately 24 hours and then changed to serum-containing media prior to electrophysiology testing. The manual patch-clamp assay was carried out at room temperature using a traditional electrophysiological unit. Cells were used within 2-3 hours after addition of serum containing media to the cells. The standard extracellular solution contained 145 mM NaCl, 4 mM KCl, 2 mM CaCl2, 1 mM MgCl2, 10 mM HEPES and 10 mM glucose. The pH was adjusted to 7.4 with NaOH, and the osmolarity was measured as 311 mOsm/L. The standard intracellular solution contained 50 mM KCl, 10 mM NaCl, 60 mM KF, 2 mM MgCl2, 20 mM EGTA and 10 mM HEPES. The pH was adjusted to 7.2 with KOH and the osmolarity was measured as 286 mOsm/L. A standard ramp protocol was used to monitor currents upon addition of control (extracellular solution) and compound solutions. The voltage protocol consisted of a series of voltage ramps from −100 mV to +100 mV, every 5 seconds, from a holding potential of −60 mV. The maximum outward current values during the recordings at +100 mV were used for analysis. Manual patch clamp experiments were carried out using an Axon 200B amplifier and a Digidata 1440A acquisition system from Axon Instruments (Molecular Devices, USA). The software program pClamp (version 10) from Axon Instruments was used to stimulate and record electrical activity. Capacitative transients were compensated electronically from the recordings, however the voltage drop across the series resistance and the liquid junction potential were not compensated. The series resistance was generally less than 10 MΩ, with a mean cell capacity of approximately 25 pF. The GraphPad Prism (version 5) software was used to analyze and plot all graphs. The agonist (cannabidiol; Abcam #ab120448) was prepared as 100 mM stock in 100% DMSO and diluted to 4 μM or 10 μM in physiological solution prior to testing. Piperlongumine was prepared as 100 mM stock in 100% DMSO and diluted to the specified concentrations in physiological solution (100, 50, 10, 1 and 0.1 μM), also containing 4 μM or 10 μM cannabidiol. Ruthenium red (Sigma, #R2751) was prepared daily as 10 mM stock ion distilled water and diluted to 100 μM in physiological solution.

TRPC7 = TRPC7 (Homo sapiens, UniProt Q9HCX4); assay: Fluorescence cell-based assay, TRPC7; settings: membrane potential dye, spread in log units, duplicate
Description: as §1

Sequence of TRPC7 (Q9HCX4 whole entry): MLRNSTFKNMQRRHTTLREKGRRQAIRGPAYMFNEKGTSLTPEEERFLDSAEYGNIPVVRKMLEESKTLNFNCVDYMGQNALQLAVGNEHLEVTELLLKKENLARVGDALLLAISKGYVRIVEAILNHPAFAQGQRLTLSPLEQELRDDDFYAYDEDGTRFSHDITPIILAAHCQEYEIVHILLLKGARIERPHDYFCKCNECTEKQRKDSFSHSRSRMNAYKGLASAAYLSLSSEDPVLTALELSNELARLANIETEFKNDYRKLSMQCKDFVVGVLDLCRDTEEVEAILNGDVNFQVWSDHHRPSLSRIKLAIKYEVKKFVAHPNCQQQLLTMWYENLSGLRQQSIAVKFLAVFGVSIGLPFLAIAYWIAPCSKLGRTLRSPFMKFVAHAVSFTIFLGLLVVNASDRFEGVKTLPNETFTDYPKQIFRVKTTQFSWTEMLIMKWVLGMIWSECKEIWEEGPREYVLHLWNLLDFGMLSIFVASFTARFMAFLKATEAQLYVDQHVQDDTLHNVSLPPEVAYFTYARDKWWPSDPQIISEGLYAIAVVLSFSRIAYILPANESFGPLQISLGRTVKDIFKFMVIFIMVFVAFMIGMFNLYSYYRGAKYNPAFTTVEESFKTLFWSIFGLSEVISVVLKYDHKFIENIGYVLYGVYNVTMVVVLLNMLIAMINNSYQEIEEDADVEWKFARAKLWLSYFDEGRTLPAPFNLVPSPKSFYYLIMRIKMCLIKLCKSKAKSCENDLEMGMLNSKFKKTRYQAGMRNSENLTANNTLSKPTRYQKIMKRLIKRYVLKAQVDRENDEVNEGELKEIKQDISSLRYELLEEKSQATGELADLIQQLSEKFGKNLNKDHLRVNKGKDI
Sequence of TRPM5 (Q9NZQ8 whole entry): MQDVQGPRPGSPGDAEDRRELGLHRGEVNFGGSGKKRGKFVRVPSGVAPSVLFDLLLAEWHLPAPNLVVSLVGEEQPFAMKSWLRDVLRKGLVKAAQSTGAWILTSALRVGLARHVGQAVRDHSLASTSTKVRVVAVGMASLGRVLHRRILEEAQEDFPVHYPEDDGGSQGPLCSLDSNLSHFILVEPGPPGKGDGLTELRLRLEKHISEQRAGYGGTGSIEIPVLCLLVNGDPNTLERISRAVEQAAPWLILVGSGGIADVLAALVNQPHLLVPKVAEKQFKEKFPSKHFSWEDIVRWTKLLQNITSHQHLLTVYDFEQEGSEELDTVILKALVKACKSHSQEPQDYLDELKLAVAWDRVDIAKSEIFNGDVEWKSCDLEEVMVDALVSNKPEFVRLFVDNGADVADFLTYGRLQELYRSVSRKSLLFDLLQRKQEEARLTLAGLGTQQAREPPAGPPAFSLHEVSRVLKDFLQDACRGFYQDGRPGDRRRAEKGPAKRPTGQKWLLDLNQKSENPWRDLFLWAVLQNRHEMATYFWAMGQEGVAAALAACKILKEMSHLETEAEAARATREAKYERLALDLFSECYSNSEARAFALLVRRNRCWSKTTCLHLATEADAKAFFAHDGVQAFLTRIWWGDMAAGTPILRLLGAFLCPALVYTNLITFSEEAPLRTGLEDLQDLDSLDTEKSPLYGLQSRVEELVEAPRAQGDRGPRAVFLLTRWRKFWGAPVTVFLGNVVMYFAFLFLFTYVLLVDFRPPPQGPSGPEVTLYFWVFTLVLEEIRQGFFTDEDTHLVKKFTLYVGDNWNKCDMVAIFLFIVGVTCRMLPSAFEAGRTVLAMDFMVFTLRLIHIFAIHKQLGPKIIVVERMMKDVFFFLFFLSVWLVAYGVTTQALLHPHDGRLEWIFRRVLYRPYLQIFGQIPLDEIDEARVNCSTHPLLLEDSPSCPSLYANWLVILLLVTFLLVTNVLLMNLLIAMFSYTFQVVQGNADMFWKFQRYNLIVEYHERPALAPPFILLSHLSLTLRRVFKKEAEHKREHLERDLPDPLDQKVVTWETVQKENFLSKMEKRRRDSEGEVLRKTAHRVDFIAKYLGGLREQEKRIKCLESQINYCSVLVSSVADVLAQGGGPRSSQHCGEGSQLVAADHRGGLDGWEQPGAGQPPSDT
Sequence of TRPC5 (Q9UL62 whole entry): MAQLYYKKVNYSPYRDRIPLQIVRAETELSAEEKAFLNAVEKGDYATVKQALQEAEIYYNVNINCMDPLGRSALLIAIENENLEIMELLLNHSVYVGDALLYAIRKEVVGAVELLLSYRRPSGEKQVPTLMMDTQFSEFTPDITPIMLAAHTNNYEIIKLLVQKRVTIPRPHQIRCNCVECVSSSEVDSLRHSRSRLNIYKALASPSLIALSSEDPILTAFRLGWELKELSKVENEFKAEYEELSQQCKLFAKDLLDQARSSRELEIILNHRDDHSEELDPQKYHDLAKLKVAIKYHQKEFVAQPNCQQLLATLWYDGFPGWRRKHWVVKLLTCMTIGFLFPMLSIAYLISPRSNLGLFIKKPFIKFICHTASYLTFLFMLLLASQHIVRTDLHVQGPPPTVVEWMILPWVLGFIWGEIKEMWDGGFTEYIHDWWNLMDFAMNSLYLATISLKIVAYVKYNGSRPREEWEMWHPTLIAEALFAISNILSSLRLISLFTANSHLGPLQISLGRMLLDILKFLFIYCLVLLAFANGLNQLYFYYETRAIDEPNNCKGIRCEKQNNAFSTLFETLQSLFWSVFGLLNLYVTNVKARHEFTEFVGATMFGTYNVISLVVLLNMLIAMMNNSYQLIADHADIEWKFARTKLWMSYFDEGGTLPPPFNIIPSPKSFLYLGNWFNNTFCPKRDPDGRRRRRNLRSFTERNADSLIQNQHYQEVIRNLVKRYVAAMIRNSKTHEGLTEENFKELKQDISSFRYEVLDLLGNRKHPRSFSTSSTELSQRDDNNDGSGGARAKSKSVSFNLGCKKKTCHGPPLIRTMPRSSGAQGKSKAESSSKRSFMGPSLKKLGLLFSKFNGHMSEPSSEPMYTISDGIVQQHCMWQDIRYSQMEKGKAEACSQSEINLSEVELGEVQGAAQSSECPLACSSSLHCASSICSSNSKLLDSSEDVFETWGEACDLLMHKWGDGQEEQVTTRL

COc1cc(/C=C/C(=O)N2CCC=CC2=O)cc(OC)c1OC [Compound 1, piperlongumine]
Sensitivity of U251 cells (U251 cells): sensitive to PL in a dose- and time-dependent manner | IC50 (TRPC5): > 100 µM | IC50 (TRPM5): > 100 µM | TRPV2 activity after washout (reversibility) (TRPV2; 1 at 100 μM, CBD 4 μM): fully restored upon washout; also recorded: full TRPV2 activity can be reinstated | IC50 (TRPV2; stimulus: 4 μM CBD, spread in log units): 1 µM | IC50 (TRPV2; stimulus: 10 μM CBD): > 100 µM | IC50 (TRPC7): 64 ± 0.06 µM
